Source: patent US20230128357A1, “Compound Combination with Superior Herbicidal Activity” (priority 2020, published 2023)

Experiments:
Assay in all cases: Herbicidal action, field trial, post-emergence
Assay type in all cases: in vivo
Abutilon theophrasti = settings: Table 2
Source text: (§1) The growth stages of the different weed or crop plant species are indicated according to the BBCH monograph “Growth stages of mono- and dicotyledonous plants”, 2nd edition, 2001, ed. Uwe Meier, Federal Biological Research Centre for Agriculture and Forestry (Biologische Bundesanstalt für Land und Forstwirtschaft). The respective BBCH stages are mentioned in brackets for the different weed or crop plant species and indicate the BBCH stage for the majority of the respective weed or crop plant species.
(§2) The dose rates of herbicidal ingredients used in each case are indicated for the respective active ingredient in brackets and refer to the amount of active ingredient per hectare (g a.i./ha).

Echinocloa crus-galli = tested on: Echinocloa crus-galli
Source text: as §1, §2
(§3) EC=A+B+C−[((A·B)+(A·C)+(B·C)]100)+(A·B·C/10000)

Setaria viridis = tested on: Setaria viridis
Source text: as §1, §2, §3

Panicum maximum = tested on: Panicum maximum
Source text: as §1, §2, §3

Zea mays = tested on: Zea mays
Source text: as §1, §2, §3

Polygonum convolvulus = tested on: Polygonum convolvulus
Source text: as §1, §2, §3

Chenopodium album = tested on: Chenopodium album
Source text: as §1, §2, §3

CCCCCCCCC(=O)O [Pelargonic acid]
Herbicidal Activity 13 DAT (EA) (Abutilon theophrasti; 6000 g a.i./ha): 40% | Herbicidal Activity 13 DAT (EA) (Abutilon theophrasti; 16000 g a.i./ha): 80% | Herbicidal Activity 13 DAT (EA) (Echinocloa crus-galli; 6000 g a.i./ha, Table 5): 25% | Herbicidal Activity 13 DAT (EA) (Echinocloa crus-galli; 6000 g a.i./ha, Table 11): 13% | Herbicidal Activity 13 DAT (EA) (Echinocloa crus-galli; 16000 g a.i./ha, Table 5): 35% | Herbicidal Activity 13 DAT (EA) (Echinocloa crus-galli; 16000 g a.i./ha, Table 11): 30% | Herbicidal Activity 13 DAT (EA) (Setaria viridis; 6000 g a.i./ha, Table 4): 40% | Herbicidal Activity 13 DAT (EA) (Setaria viridis; 6000 g a.i./ha, Table 10): 25% | Herbicidal Activity 13 DAT (EA) (Setaria viridis; 16000 g a.i./ha, Table 4): 55% | Herbicidal Activity 13 DAT (EA) (Setaria viridis; 16000 g a.i./ha, Table 10): 50% | Herbicidal Activity 13 DAT (EA) (Panicum maximum; 6000 g a.i./ha, Table 6): 10% | Herbicidal Activity 13 DAT (EA) (Panicum maximum; 6000 g a.i./ha, Table 12): 15% | Herbicidal Activity 13 DAT (EA) (Panicum maximum; 16000 g a.i./ha, Table 6): 65% | Herbicidal Activity 13 DAT (EA) (Panicum maximum; 16000 g a.i./ha, Table 12): 58% | Herbicidal Activity 13 DAT (EA) (Zea mays; 6000 g a.i./ha, Table 7): 40% | Herbicidal Activity 13 DAT (EA) (Zea mays; 6000 g a.i./ha, Table 13): 39% | Herbicidal Activity 13 DAT (EA) (Zea mays; 16000 g a.i./ha, Table 7): 60% | Herbicidal Activity 13 DAT (EA) (Zea mays; 16000 g a.i./ha, Table 13): 63% | Herbicidal Activity 13 DAT (EA) (Polygonum convolvulus; 6000 g a.i./ha, Table 1): 10% | Herbicidal Activity 13 DAT (EA) (Polygonum convolvulus; 6000 g a.i./ha, Table 8): 25% | Herbicidal Activity 13 DAT (EA) (Polygonum convolvulus; 16000 g a.i./ha, Table 1): 89% | Herbicidal Activity 13 DAT (EA) (Polygonum convolvulus; 16000 g a.i./ha, Table 8): 90% | Herbicidal Activity 13 DAT (EA) (Chenopodium album; 6000 g a.i./ha, Table 3): 45% | Herbicidal Activity 13 DAT (EA) (Chenopodium album; 6000 g a.i./ha, Table 9): 42.5% | Herbicidal Activity 13 DAT (EA) (Chenopodium album; 16000 g a.i./ha, Table 3): 88% | Herbicidal Activity 13 DAT (EA) (Chenopodium album; 16000 g a.i./ha, Table 9): 84%

O=C(Nc1ccc(F)cc1F)c1cccnc1Oc1cccc(C(F)(F)F)c1 [Diflufenican, diflufenican]
Herbicidal Activity 13 DAT (EA) (Abutilon theophrasti; 60 g a.i./ha): 35% | Herbicidal Activity 13 DAT (EA) (Abutilon theophrasti; 150 g a.i./ha): 65% | Herbicidal Activity 13 DAT (EA) (Echinocloa crus-galli; 60 g a.i./ha, Table 5): 0% | Herbicidal Activity 13 DAT (EA) (Echinocloa crus-galli; 90 g a.i./ha, Table 11): 0% | Herbicidal Activity 13 DAT (EA) (Echinocloa crus-galli; 150 g a.i./ha, Table 5): 0% | Herbicidal Activity 13 DAT (EA) (Echinocloa crus-galli; 150 g a.i./ha, Table 11): 0% | Herbicidal Activity 13 DAT (EA) (Setaria viridis; 60 g a.i./ha, Table 4): 0% | Herbicidal Activity 13 DAT (EA) (Setaria viridis; 90 g a.i./ha, Table 10): 0% | Herbicidal Activity 13 DAT (EA) (Setaria viridis; 150 g a.i./ha, Table 4): 0% | Herbicidal Activity 13 DAT (EA) (Setaria viridis; 150 g a.i./ha, Table 10): 0% | Herbicidal Activity 13 DAT (EA) (Panicum maximum; 60 g a.i./ha, Table 6): 10% | Herbicidal Activity 13 DAT (EA) (Panicum maximum; 90 g a.i./ha, Table 12): 10% | Herbicidal Activity 13 DAT (EA) (Panicum maximum; 150 g a.i./ha, Table 6): 10% | Herbicidal Activity 13 DAT (EA) (Panicum maximum; 150 g a.i./ha, Table 12): 10% | Herbicidal Activity 13 DAT (EA) (Zea mays; 60 g a.i./ha, Table 7): 13% | Herbicidal Activity 13 DAT (EA) (Zea mays; 90 g a.i./ha, Table 13): 10% | Herbicidal Activity 13 DAT (EA) (Zea mays; 150 g a.i./ha, Table 7): 25% | Herbicidal Activity 13 DAT (EA) (Zea mays; 150 g a.i./ha, Table 13): 25% | Herbicidal Activity 13 DAT (EA) (Polygonum convolvulus; 60 g a.i./ha, Table 1): 40% | Herbicidal Activity 13 DAT (EA) (Polygonum convolvulus; 90 g a.i./ha, Table 8): 45% | Herbicidal Activity 13 DAT (EA) (Polygonum convolvulus; 150 g a.i./ha, Table 1): 60% | Herbicidal Activity 13 DAT (EA) (Polygonum convolvulus; 150 g a.i./ha, Table 8): 60% | Herbicidal Activity 13 DAT (EA) (Chenopodium album; 60 g a.i./ha, Table 3): 10% | Herbicidal Activity 13 DAT (EA) (Chenopodium album; 90 g a.i./ha, Table 9): 10% | Herbicidal Activity 13 DAT (EA) (Chenopodium album; 150 g a.i./ha, Table 3): 10% | Herbicidal Activity 13 DAT (EA) (Chenopodium album; 150 g a.i./ha, Table 9): 10%

Cc1ccc2c(c1)[C@H](Nc1nc(N)nc([C@@H](C)F)n1)[C@@H](C)C2 (mixture of isomers) [Indaziflam, N2-[(1R,2S)-2,3-dihydro-2,6-dimethyl-1H-inden-1-yl]-6-[(1RS)-1-fluoroethyl]-1,3,5-triazine-2,4-diamine]
Herbicidal Activity 13 DAT (EA) (Echinocloa crus-galli; 10 g a.i./ha, Table 11): 0% | Herbicidal Activity 13 DAT (EA) (Echinocloa crus-galli; 25 g a.i./ha, Table 11): 0% | Herbicidal Activity 13 DAT (EA) (Setaria viridis; 10 g a.i./ha, Table 10): 0% | Herbicidal Activity 13 DAT (EA) (Setaria viridis; 25 g a.i./ha, Table 10): 0% | Herbicidal Activity 13 DAT (EA) (Panicum maximum; 10 g a.i./ha, Table 12): 0% | Herbicidal Activity 13 DAT (EA) (Panicum maximum; 25 g a.i./ha, Table 12): 0% | Herbicidal Activity 13 DAT (EA) (Zea mays; 10 g a.i./ha, Table 13): 0% | Herbicidal Activity 13 DAT (EA) (Zea mays; 25 g a.i./ha, Table 13): 0% | Herbicidal Activity 13 DAT (EA) (Polygonum convolvulus; 10 g a.i./ha, Table 8): 20% | Herbicidal Activity 13 DAT (EA) (Polygonum convolvulus; 25 g a.i./ha, Table 8): 20% | Herbicidal Activity 13 DAT (EA) (Chenopodium album; 10 g a.i./ha, Table 9): 0% | Herbicidal Activity 13 DAT (EA) (Chenopodium album; 25 g a.i./ha, Table 9): 10%
